Reference: paper PMC3990583 (PLoS ONE, 2014)

How the values were obtained:
293T cells [1] = experiment: RT-PCR analysis of alternative pre-mRNA splicing in 293T cells; assay type: cell-based, human
Procedure: Cells (293T, Huh7, and HepG2) were cultured in Dulbecco's modified Eagle's medium (DMEM) containing 10% fetal bovine serum (FBS; Hyclone) supplemented with 1% penicillin and streptomycin. […] The 293T cells were transfected in 6-well plates with siRNAs (Bioneer) at a final concentration of 100 nM using Lipofectamine RNAiMax (Invitrogen) according to the manufacturer's instructions.
(§1) To analyze the effect of compounds on pre-mRNA splicing, 293T, Huh7, and HepG2 cells were treated with the indicated concentrations. Total RNAs were extracted using the TRIzol reagent (Invitrogen) followed by cDNA synthesis using the Omniscript RT kit (Qiagen) and an oligo-dT primer. PCR was performed at 95°C for 30 s, 55°C for 30 s, and 72°C for 1 min for 35 cycles using GoTaq Green Master Mix (Promega). Quantitative real-time PCR analysis was performed using the BioRad IQ SYBR Green Supermix. All gene expression experiments were performed independently at least twice.
(§2) The cDNA was synthesized and further processed for exon array as described in Materials and Methods. All experiments were performed three times, and representative heat maps of selected transcripts from the exon arrays are shown. Selected exons for each mRNA are highlighted with black underlines. (B) RT-PCR analysis was performed for the ELL2, SPAST, QRSL1, PRPSAP2, CPEB1, USP38, TRIP4, CTDSPL2, WDFY1 and ZCCHC2 genes with the same RNA used for the exon arrays. The exonic structure of the RT-PCR products and the exonic location of PCR primers are indicated with tandem rectangles and arrowheads, respectively. PCR products were quantified using ImageJ software, and the ratios of skipped product (skipped/total PCR product) were calculated.
Total levels of AKT were also monitored as a control. hnRNP A1 was used as a loading control. (B) Alternatively spliced CK2 α′, ELL2, CPEB1, PRPSAP2, and QRSL1 mRNAs were examined by RT-PCR. PCR products of normal and alternatively spliced isoforms are denoted by black arrowheads. An extra PCR product of the QRSL1 gene appeared in TBB-treated samples and is denoted by an asterisk. All experiments were performed twice, and representative data for each are presented.

[2] = tested on: CK2-mediated phosphorylation of AKT at S129; experiment: Western blot of AKT(S129) phosphorylation (CK2-specific site) in 293T cells; assay type: cell-based, human; conditions: 12 hours
[3] = tested on: SR protein phosphorylation; experiment: Western blot of phosphorylated SR proteins (mAb 1H4) in 293T cells; assay type: cell-based, human; conditions: for alteration of SR protein phosphorylation: 100 µM, 12 hour, Figure S5
[4] = tested on: Clk1 and Clk4 over Clk2 and Clk3; set-up: method as in PMID 15010457; conditions: cited from earlier work
recombinant human Clk3 = recombinant human Clk3 (Homo sapiens, UniProt P49761); experiment: In vitro kinase assay (Life Technologies), Clk3; assay type: biochemical
recombinant human SRPK1 = recombinant human SRPK1 (Homo sapiens, UniProt Q96SB4); experiment: In vitro kinase assay (Life Technologies), SRPK1; assay type: biochemical; conditions: two independent assays
recombinant human SRPK2 = recombinant human SRPK2 (Homo sapiens, UniProt P78362); experiment: In vitro kinase assay (Life Technologies), SRPK2; assay type: biochemical; conditions: two independent assays
[5] = molecular target: Clks (Clk1, Clk2, and Clk3); experiment: In vitro kinase assays, Clk family as a whole; assay type: biochemical, human; conditions: range over Clk1, Clk2, Clk3; read-out: IC50 on Clks (all three Clks, Clk1-3)
SRPKs (SRPK1 and SRPK2) = experiment: In vitro kinase assays, SRPK family as a whole; assay type: biochemical, human
Clks = experiment: In vitro kinase assays (Millipore), CX-4945 compared with TG-003 on Clks; assay type: biochemical, human; conditions: Figure S6
Procedure: All experiments were performed twice.

293T cells [6] = experiment: Affymetrix exon array, transcriptome-wide splicing in 293T cells; assay type: cell-based, human; conditions: 10 µM, 12 hours
Procedure: The fragmented and end-labeled single-stranded cDNAs were prepared and hybridized to Affymetrix-GeneChip Human Exon 1.0 ST arrays (Affymetrix). Affymetrix Expression Console Software was used to perform quality assessment. Affymetrix exon array data was analyzed using GeneSpring 12.6 inclusive of GX (Agilent Technologies). Three independent experimental samples were examined.
Transcriptome analysis with the Affymetrix GeneChip Human Exon 1.0 ST Array, which contains multiple probes per exon, allowed us to search for variations at the exon level. […] Further analysis characterized the 8,968 affected exons into 1,555 included exons and 7,413 skipped exons. To validate this observation, we randomly chose 15 exons from those affected by more than 2-fold and examined alterations in alternative splicing using RT-PCR of the same total RNAs used in the exon array experiments. Representative mRNAs containing selected exons are illustrated by heat maps, and all of the selected exons were denoted by black underlines (Figure 2A). […] Different exons are commonly affected differentially by a stimulus or splicing inhibition, depending on cis-acting elements on exon/intron and activities of trans-acting factors.
as §2

Huh7 cells = experiment: RT-PCR of Bcl-X and RON alternative splicing in Huh7 cells; assay type: cell-based, human; conditions: 12 hours
Procedure: as §1

293T cells [7] = experiment: Quantitative real-time PCR of CK2 α′ mRNA levels in 293T cells; assay type: cell-based, human; conditions: qPCR, primers to exon 7, Figure S1
Procedure: as §1
Figure S1. […] Quantitative real-time PCR was performed with total RNA from DMSO- and CX-4945-treated 293T cells. The amount of normal CK2 α’ mRNA was measured using primers corresponding to exon 6, and the total amount of normal CK2 α’ mRNA and the smaller-sized CK2 α’ mRNA was measured using primers corresponding to exon 7. The values for DMSO-treated samples were set to 1, and the relative amounts were calculated. The average and SD values were determined from three independent experiments.

HepG2 cells = experiment: Quantitative real-time PCR of gluconeogenic genes in HepG2 cells; conditions: 12 hours

recombinant human SRPK1, sequence (Q96SB4 whole entry): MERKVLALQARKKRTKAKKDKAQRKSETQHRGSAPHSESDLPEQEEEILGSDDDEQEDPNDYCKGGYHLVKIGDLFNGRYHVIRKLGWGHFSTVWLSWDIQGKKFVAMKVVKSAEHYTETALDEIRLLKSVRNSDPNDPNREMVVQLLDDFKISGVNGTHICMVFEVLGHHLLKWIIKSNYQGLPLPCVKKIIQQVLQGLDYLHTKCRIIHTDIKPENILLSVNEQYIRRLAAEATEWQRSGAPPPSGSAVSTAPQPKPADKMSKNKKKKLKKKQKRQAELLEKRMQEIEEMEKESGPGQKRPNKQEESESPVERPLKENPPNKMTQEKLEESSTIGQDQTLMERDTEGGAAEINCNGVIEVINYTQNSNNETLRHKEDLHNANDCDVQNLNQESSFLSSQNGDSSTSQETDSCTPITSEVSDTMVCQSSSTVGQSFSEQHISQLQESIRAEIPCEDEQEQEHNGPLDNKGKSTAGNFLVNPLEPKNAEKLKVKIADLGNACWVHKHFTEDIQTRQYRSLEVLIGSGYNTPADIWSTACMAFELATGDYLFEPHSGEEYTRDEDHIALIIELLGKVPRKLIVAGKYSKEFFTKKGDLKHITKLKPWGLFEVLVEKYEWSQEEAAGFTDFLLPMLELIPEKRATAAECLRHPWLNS
recombinant human SRPK2, sequence (P78362 whole entry): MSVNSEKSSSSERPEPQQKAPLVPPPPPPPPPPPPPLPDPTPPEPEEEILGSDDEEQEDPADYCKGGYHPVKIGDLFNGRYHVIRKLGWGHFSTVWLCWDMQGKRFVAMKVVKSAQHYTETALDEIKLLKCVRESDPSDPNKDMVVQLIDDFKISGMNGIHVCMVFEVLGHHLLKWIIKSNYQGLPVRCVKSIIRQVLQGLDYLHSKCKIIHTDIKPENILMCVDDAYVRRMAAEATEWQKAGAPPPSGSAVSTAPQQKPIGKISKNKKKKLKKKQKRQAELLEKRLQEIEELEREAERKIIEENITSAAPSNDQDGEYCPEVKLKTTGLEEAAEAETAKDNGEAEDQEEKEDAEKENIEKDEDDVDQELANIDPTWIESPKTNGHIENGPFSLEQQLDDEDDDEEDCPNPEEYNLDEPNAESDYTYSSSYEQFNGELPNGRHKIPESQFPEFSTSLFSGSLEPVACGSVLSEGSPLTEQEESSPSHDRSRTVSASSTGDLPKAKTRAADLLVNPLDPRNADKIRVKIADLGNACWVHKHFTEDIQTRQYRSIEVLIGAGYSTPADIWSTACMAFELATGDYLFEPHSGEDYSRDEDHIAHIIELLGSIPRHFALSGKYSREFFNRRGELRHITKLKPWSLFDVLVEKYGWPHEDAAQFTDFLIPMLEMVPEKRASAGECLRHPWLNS
recombinant human Clk3, sequence (P49761 whole entry): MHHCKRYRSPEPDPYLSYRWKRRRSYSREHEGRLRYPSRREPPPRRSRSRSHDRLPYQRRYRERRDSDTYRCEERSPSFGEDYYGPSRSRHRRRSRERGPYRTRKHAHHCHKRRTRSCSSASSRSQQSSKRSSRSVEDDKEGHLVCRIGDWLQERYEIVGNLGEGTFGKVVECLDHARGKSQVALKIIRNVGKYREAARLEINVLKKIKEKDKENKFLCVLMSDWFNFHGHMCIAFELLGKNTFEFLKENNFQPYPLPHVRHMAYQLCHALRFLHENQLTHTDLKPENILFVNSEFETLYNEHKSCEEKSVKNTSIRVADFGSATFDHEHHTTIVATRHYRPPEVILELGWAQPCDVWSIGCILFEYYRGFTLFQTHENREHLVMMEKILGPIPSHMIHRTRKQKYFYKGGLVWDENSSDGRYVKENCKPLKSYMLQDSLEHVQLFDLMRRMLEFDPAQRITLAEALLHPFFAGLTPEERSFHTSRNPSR

Compound: O=C(O)/C=C/c1cc(Br)c(Br)c(Br)c1Br [TBCA, tetrabromocinnamic acid]
- changes in alternative splicing of selected genes (CK2 α′, ELL2, CPEB1, PRPSAP2, QRSL1) (293T cells [1]; 100 µM, 12 hours): negligible effect
- CK2-mediated phosphorylation of AKT at S129 ([2]; 100 µM): efficiently blocked
- alteration of SR protein phosphorylation [3]: did not induce the alteration

Compound: Brc1c(Br)c(Br)c2[nH]nnc2c1Br [TBB, 4,5,6,7-tetrabromobenzotriazole]
- changes in alternative splicing of selected genes (CK2 α′, ELL2, CPEB1, PRPSAP2, QRSL1) (293T cells [1]; 100 µM, 12 hours): negligible effect
- extra PCR product of QRSL1 (cryptic splicing, 3′ part of exon 11) (293T cells [1]; 100 µM, 12 hours): induced the appearance of an additional PCR product
- CK2-mediated phosphorylation of AKT at S129 ([2]; 100 µM): efficiently blocked
- alteration of SR protein phosphorylation [3]: did not induce the alteration

Compound: CCN1/C(=C/C(C)=O)Sc2ccc(OC)cc21 [TG-003]
- preferential efficacy on Clk1 and Clk4 over Clk2 and Clk3 [4]: at least 5 fold

Compound: O=C(O)c1ccc2c(c1)nc(Nc1cccc(Cl)c1)c1ccncc12 [CX-4945]
- IC50 (recombinant human Clk3): 90 nM
- IC50 (recombinant human SRPK1): 1230 nM
- IC50 (recombinant human SRPK2): 1110 nM
- IC50 [5]: 3 to 90 nM
- IC50 (SRPKs (SRPK1 and SRPK2)): > 1000 nM
- overall efficacies on Clks compared with TG-003 (Clks): much stronger than those of TG-003
- amount of PCR product corresponding to normal CK2 α′ (293T cells [1]; 10 µM, 12 hours, compared with DMSO): reduced
- splicing of Clk1/Sty pre-mRNA (293T cells [1]; 12 hours, 293T): changes in splicing
- time of appearance of new product CK2 α′△ (exon6-skipped) (293T cells [1]; time course following exposure, 293T): as early as 2 or 3
- included exons among the affected exons (293T cells [6]): 1,555 exons
- skipped exons among the affected exons (293T cells [6]): 7,413 exons
- genes affected at the whole-transcript level (293T cells [6]; 82 out of 18,673 genes): 0.44%
- CK2-mediated phosphorylation of AKT at S129 ([2]; 10 µM): efficiently blocked
- regulatory efficacy on SR protein phosphorylation compared with TG-003 ([3]; 1 µM CX-4945 versus 10 µM TG-003, 1 hour): stronger than that of TG-003
- levels of phosphorylated SRSF4, SRSF6, SRSF5, and SRSF1 ([3]; 1 and 10 µM, 1 hour): considerably decreased
- phosphorylation of SRSF3 ([3]; 1 and 10 µM, 1 hour): not affected
- upper band of phospho-SRSF6 (hyperphosphorylated SRSF6) ([3]; 1 and 10 µM, 1 hour): dramatically increased
- dose dependence of effect on phosphorylation of SR proteins ([3]; 1 versus 10 µM, 1 hour): dose-dependent
- normal alternative splicing of Bcl-X and RON pre-mRNAs (Huh7 cells): alteration of normal alternative splicing
- total amount of normal CK2 α′ and smaller-sized CK2 α′ mRNA (293T cells [7]): not altered
- G6Pase and PEPCK gene expression (HepG2 cells): induced
